Like-named read-outs stand apart in the source and are kept apart here.
Legend:
β-catenin = experiment: Western blot, β-catenin expression in KMS-18 cells; assay type: cell-based, human; settings: KMS-18 cells treated for 24h
Protocol: Western blot was performed as described recently^16.
(§1) • Figure 1. […] Data are shown as mean ± SD. • Figure 2. […] Data are shown as mean ± SD. • Figure 3. […] (A) Flow cytometric results. […] Finally, ECL reagent was utilized for detection. • Figure 4C. […] Finally, ECL reagent was utilized for detection. • Figure 5. Effect of EA on viability of myeloma primary cells. […] Results represent data from two separate experiments. Data are shown as mean. • Figure 6. […] (A) Tumor growth and (B) overall survival were measured. Six animals were assayed per group.
Western blot was performed as described recently.
• Figure 7. […] Data are shown as mean ± SD. • Figure 8. […] Data are shown as mean ± SD. • Figure 9. Effect of CIC on the Wnt/beta catenin pathway. (A) Flow cytometric results. […] Finally, ECL reagent was utilized for detection. • Figure 10C. […] Finally, ECL reagent was utilized for detection. • Figure 11. […] (A) Tumor growth and (B) overall survival were measured. Six animals were assayed per group. HD CIC.

[1] = test system: primary myeloma cells derived from bone marrow from patients with multiple myeloma; experiment: Viability of myeloma primary cells from bone marrow; assay type: cell-based, human; settings: incubated three days; preliminary data
Protocol: Bone marrow samples from patients with myeloma were taken after informed consent, single cell suspensions generated and cells ficolled. Cells were incubated with or without EA for three days and measured for viability.
as §1
Bone marrow samples from patients with myeloma were taken after informed consent, single cell suspensions generated and cells ficolled. Cells were incubated with or without CIC for three days and measured for viability.
Bone marrow samples from patients with myeloma were taken after informed consent, single cell suspensions generated and cells ficolled. Cells were incubated with or without GF for three days and measured for viability.

MPC11 myeloma cells = settings: 750 µg lenalidomide/day
Protocol: All animal experiments were done at least in duplicate with groups of 6 BALB/c mice (Charles River, Sulzfeld, Germany). 5x10^5 MCP11 murine myeloma cells were injected per mouse subcutaneously into Balb/c mice. […] Overall survival and tumor growth were measured. Tumor volume was calculated as follows: volume = length x width^2 x 0,52. Animals were killed when tumor volume reached 2000 mm^3.
• Figure 1. […] 1x10^5 cells were cultured with different compounds for three days. The concentration of thalidomide was U266 160µM for U266, RPMI 20µM for RPMI, and OPM 40µM for OPM cells. Then cell viability was measured by DIOC6 staining in flow cytometry. Results represent data from three, two and five separate experiments, respectively. Separate U266 n=3, RPMI n=2, OPM n=5 experiments. Data are shown as mean ± SD. • Figure 2. […] 1x10^5 OPM cells were cultured with the different compounds for three days. The concentration of lenalidomide was 12µM for OPM and 80µM for RPMI cells. Then cell viability was measured by DIOC6 staining in flow cytometry. Results represent data from eight and five OPM n=8, RPMI n=5 separate experiments, respectively. Data are shown as mean ± SD. • Figure 3. […] (A) Flow cytometric results. […] Western Blot analysis for the detection of β-catenin in myeloma cell lines under normal conditions. The myeloma cell lines RPMI 8226, KMS-18 and U266 were analyzed according to their β-catenin expression. • Figure 4B. […] As primary antibodies purified mouse anti-β-catenin and β-actin were used at a dilution of 1:1000 and as secondary antibody served goat anti-mouse IgG-HRP at a dilution of 1:5000. Finally, ECL reagent was utilized for detection. • Figure 4C. […] As primary antibodies Purified mouse anti-β-catenin and β-actin were used at a dilution of 1:1000 and as secondary antibody served goat anti-mouse IgG-HRP at a dilution of 1:5000. Finally, ECL reagent was utilized for detection. • Figure 5. […] Results represent data from two separate experiments. Data are shown as mean. • Figure 6. […] BALB/c mice were injected with 5x10^5 MPC11 myeloma cells subcutaneously. (A) Tumor growth and (B) overall survival were measured. Six animals were assayed per group.
All animal experiments were done at least in duplicate with groups of 6 BALB/c mice (Charles River, Sulzfeld, Germany). 5x10^5 MCP11 murine myeloma cells were injected per mouse subcutaneously into Balb/c mice. Mice were treated orally with 450µg/day CIC and 750 µg lenalidomide/day, respectively. Overall survival and tumor growth were measured. Tumor volume was calculated as follows: volume = length x width^2 x 0,52. Animals were killed when tumor volume reached 2000 mm^3.
• Figure 7. […] 1x10^5 cells were cultured with different compounds for three days. The concentration of thalidomide was U266 160µM for U266, RPMI 20µM for RPMI, and OPM 40µM for OPM cells. Then cell viability was measured by DIOC6 staining in flow cytometry. Results represent data from three, two and five separate experiments, respectively. Separate U266 n=3, RPMI n=2, OPM n=5 experiments. Data are shown as mean ± SD. • Figure 8. […] 1x10^5 OPM cells were cultured with the different compounds for three days. The concentration of lenalidomide was 12µM for OPM and 80µM for RPMI cells. Then cell viability was measured by DIOC6 staining in flow cytometry. Results represent data from eight and five OPM n=8, RPMI n=5 separate experiments, respectively. Data are shown as mean ± SD. • Figure 9. […] (A) Flow cytometric results. (B) We analyzed the effect of CIC on the Wnt/beta catenin pathway by Western blot. • Figure 10A. Western Blot analysis for the detection of β-catenin in myeloma cell lines under normal conditions. The myeloma cell lines RPMI 8226, KMS-18 and U266 were analyzed according to their β-catenin expression. • Figure 10B.

[2] = Cell viability by DiOC6 staining, flow cytometry (normal control cells); assay type: cell-based, human; settings: human; control of PBMC; after 72 h; read-out: relative viability
Protocol: PBMCs were isolated from blood of healthy donors by Ficoll-Hypaque density gradient centrifugation. Blood from buffy coats was mixed 1:2 with PBS/1% BSA (both PAA, Cölbe, Germany) and used for a ficoll gradient (LymphoPrep, PAA, Cölbe, Germany). After the centrifugation at 800 g for 30 minutes, the leukocyte layer was removed and transferred to new tubes. Subsequently, these cells were washed 3 times with PBS/1%BSA and re-suspended in fresh medium, consisting of RPMI medium (PAA, Cölbe, Germany) with 10% fetal calf serum (Invitrogen, Karlsruhe, Germany), 2.5% hepes buffer solution (PAA, Cölbe, Germany), and 1% penicillin/streptomycin (PAA, Cölbe, Germany).
Experiments were performed as reported recently.

[3] = test system: Wnt/β-catenin target genes, including LEF-1, cyclin D1 and fibronectin; settings: CLL cells exposed to EA; cited from earlier work
LEF-1 protein = LEF-1 protein (Homo sapiens, UniProt Q9UJU2); settings: immune co-precipitation; destabilizes the LEF-1/β-catenin complex; cited from earlier work
LEF-1 protein, sequence (Q9UJU2 whole entry): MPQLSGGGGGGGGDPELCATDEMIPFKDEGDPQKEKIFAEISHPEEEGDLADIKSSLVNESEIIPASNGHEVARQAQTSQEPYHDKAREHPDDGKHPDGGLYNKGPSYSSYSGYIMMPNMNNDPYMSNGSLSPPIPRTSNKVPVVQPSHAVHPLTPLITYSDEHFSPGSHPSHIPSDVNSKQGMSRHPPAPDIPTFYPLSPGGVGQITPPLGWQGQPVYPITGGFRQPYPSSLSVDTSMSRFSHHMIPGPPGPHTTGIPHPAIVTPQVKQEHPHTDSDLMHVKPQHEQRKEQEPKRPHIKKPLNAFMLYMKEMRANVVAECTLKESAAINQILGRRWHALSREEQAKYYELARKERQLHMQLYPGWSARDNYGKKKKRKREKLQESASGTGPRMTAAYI

Row | SMILES | β-catenin expression (β-catenin) | growth of primary myeloma cells [1] | Tumor growth (MPC11 myeloma cells; oral 450µg/day CIC, compared to control mice) | viability at 72 h, 30 µM [2] [%] | Tumor growth (MPC11 myeloma cells; oral 450µg/day EA, compared to mice treated with lenalidomide alone, p<0.001) | expression of Wnt/β-catenin target genes [3] | binding to LEF-1 protein (LEF-1 protein)
1 | Cc1cc(C2CCCCC2)n(O)c(=O)c1 [CIC, ciclopirox olamine] | decreased | inhibits the growth | significantly reduced | – | – | – | –
2 | C=C(CC)C(=O)c1ccc(OCC(=O)O)c(Cl)c1Cl [EA, 2-[2,3-dichloro-4-(2-methylidenebutanoyl)phenoxy] acetic acid] | increased | inhibits the growth | – | 89.5 ± 3.1 | significantly reduced | decreased | directly bind
